Test results taken from the supplement of paper PMC13380429.
Where a name gives a salt, the structure may show the parent alone.

Assays:
Conditions in all cases: 72 h
Vero E6 [1] = assay: relative viability EC50 (midpoint between 100% and the lowest measured viability); higher = less toxic
Calu-3 [2] = assay: as above
Caco-2 [3] = assay: as above
HepG2 [4] = assay: as above
U2OS [5] = assay: as above
Vero E6 [6] = assay: cell viability relative to DMSO; higher = less toxic
Calu-3 [7] = assay: as above
Caco-2 [8] = assay: as above
HepG2 [9] = assay: as above
U2OS [10] = assay: as above
Vero E6 [11] = assay: drug sensitivity score (DSS) for viability; higher = more toxic; extreme values may be limits of the assay
Calu-3 [12] = assay: as above
Caco-2 [13] = assay: as above
HepG2 [14] = assay: as above
U2OS [15] = assay: as above

SMILES | relative viability EC50 (Vero E6 [1]) [µM] | relative viability EC50 (Calu-3 [2]) [µM] | relative viability EC50 (Caco-2 [3]) [µM] | relative viability EC50 (HepG2 [4]) [µM] | relative viability EC50 (U2OS [5]) [µM] | cell viability (Vero E6 [6]; 1 nM) [%] | cell viability (Vero E6 [6]; 10 nM) [%] | cell viability (Vero E6 [6]; 100 nM) [%] | cell viability (Vero E6 [6]; 1000 nM) [%] | cell viability (Vero E6 [6]; 10000 nM) [%] | cell viability (Calu-3 [7]; 1 nM) [%] | cell viability (Calu-3 [7]; 10 nM) [%] | cell viability (Calu-3 [7]; 100 nM) [%] | cell viability (Calu-3 [7]; 1000 nM) [%] | cell viability (Calu-3 [7]; 10000 nM) [%] | cell viability (Caco-2 [8]; 1 nM) [%] | cell viability (Caco-2 [8]; 10 nM) [%] | cell viability (Caco-2 [8]; 100 nM) [%] | cell viability (Caco-2 [8]; 1000 nM) [%] | cell viability (Caco-2 [8]; 10000 nM) [%] | cell viability (HepG2 [9]; 1 nM) [%] | cell viability (HepG2 [9]; 10 nM) [%] | cell viability (HepG2 [9]; 100 nM) [%] | cell viability (HepG2 [9]; 1000 nM) [%] | cell viability (HepG2 [9]; 10000 nM) [%] | cell viability (U2OS [10]; 1 nM) [%] | cell viability (U2OS [10]; 10 nM) [%] | cell viability (U2OS [10]; 100 nM) [%] | cell viability (U2OS [10]; 1000 nM) [%] | cell viability (U2OS [10]; 10000 nM) [%] | drug sensitivity score (Vero E6 [11]) | drug sensitivity score (Calu-3 [12]) | drug sensitivity score (Caco-2 [13]) | drug sensitivity score (HepG2 [14]) | drug sensitivity score (U2OS [15])
CC1(C)CC[C@]2(C(=O)O)CC[C@]3(C)C(=CC[C@@H]4[C@@]5(C)CC[C@H](O)C(C)(C)[C@@H]5CC[C@]43C)[C@@H]2C1 [oleanolic-acid] | > 10 | > 10 | > 10 | > 10 | > 10 | 96.3 | 94.7 | 94.9 | 95.3 | 95.3 | 109 | 110 | 98.3 | 109 | 89.8 | 104 | 97.1 | 93 | 104 | 95.6 | 106 | 96.2 | 89.9 | 99.9 | 94.7 | 95.2 | 98.1 | 94.4 | 102 | 94.5 | 0 | 0 | 0 | 0 | 0
CC[C@H]1OC(=O)[C@H](C)[C@@H](O[C@H]2C[C@@](C)(OC)[C@@H](O)[C@H](C)O2)[C@H](C)[C@@H](O[C@@H]2O[C@H](C)C[C@H](N(C)C)[C@H]2O)[C@](C)(O)C[C@@H](C)CN(C)[C@H](C)[C@@H](O)[C@]1(C)O [azithromycin] | > 10 | > 10 | > 10 | > 10 | > 10 | 107 | 103 | 100 | 99.7 | 101 | 96.2 | 94.5 | 104 | 89.8 | 106 | 89.6 | 104 | 96.7 | 101 | 92.2 | 111 | 105 | 83.5 | 105 | 92 | 95.5 | 98.7 | 104 | 96.6 | 98.2 | 0 | 0 | 0 | 0 | 0
O=C(c1cncc(Br)c1)N1CCC(N2CCCC2)CC1 [UNC669] | > 10 | > 10 | > 10 | > 10 | > 10 | 101 | 102 | 95.7 | 100 | 97.8 | 99.3 | 110 | 93.7 | 98.4 | 98.3 | 99.1 | 105 | 90.5 | 111 | 92.7 | 98.3 | 102 | 103 | 93.4 | 101 | 97.1 | 106 | 95.1 | 102 | 93.6 | 0 | 0 | 0 | 0 | 0
CC[C@H]1OC(=O)[C@H](C)C(=O)[C@H](C)[C@@H](O[C@@H]2O[C@H](C)C[C@H](N(C)C)[C@H]2O)[C@](C)(OC)C[C@@H](C)C(=O)[C@H](C)[C@H]2N(CCCCn3cnc(-c4cccnc4)c3)C(=O)O[C@]12C [telithromycin] | > 10 | > 10 | > 10 | > 10 | > 10 | 98.1 | 98.9 | 96.1 | 96.1 | 106 | 107 | 101 | 89 | 99.8 | 100 | 100 | 99.5 | 100 | 104 | 89 | 105 | 96.6 | 103 | 101 | 109 | 88 | 95.4 | 95 | 95.2 | 97 | 0 | 0 | 0 | 0 | 0
Cc1cc(C)cc(C(=O)N(C)[C@H](Cc2ccc(-c3ccccc3)cc2)C(=O)N[C@@H](Cc2c[nH]c3ccccc23)C(=O)O)c1 [IRL-2500] | > 10 | > 10 | > 10 | > 10 | > 10 | 94.3 | 96.1 | 90.1 | 95.5 | 111 | 103 | 90.3 | 107 | 92.8 | 96.9 | 94 | 96.8 | 96.7 | 97.4 | 101 | 92.5 | 106 | 99.4 | 116 | 118 | 96.4 | 95.5 | 101 | 98.5 | 102 | 0 | 0 | 0 | 0 | 0
CC(C)(C)c1ccc(S(=O)(=O)/C=C/C#N)cc1 [BAY-11-7085] | 2.35 | 2.69 | 2.1 | 2 | 2.26 | 92.7 | 95.9 | 91.8 | 90.3 | -0.3 | 105 | 103 | 96 | 97 | 49.8 | 101 | 82.2 | 83.6 | 91.8 | 37.8 | 96.7 | 100 | 98.7 | 85.2 | -0.4 | 101 | 99 | 102 | 89.1 | -0.4 | 7.1 | 3.1 | 4.8 | 8 | 7.4
C#C[C@]1(O)CC[C@H]2[C@@H]3CCc4cc(OC)ccc4[C@H]3CC[C@@]21C [mestranol] |  | > 10 | > 10 | > 10 | > 10 |  |  |  |  |  | 89.6 | 102 | 108 | 104 | 103 | 96.8 | 106 | 102 | 100 | 82.7 | 113 | 104 | 107 | 103 | 97.5 | 102 | 98.6 | 96.7 | 101 | 96.1 |  | 0 | 0.4 | 0 | 0
O=C(N[C@H]1CN2CCC1CC2)c1cc2cccc(Cl)c2s1 [EVP-6124] | > 10 | > 10 | > 10 | > 10 | > 10 | 95.6 | 92.2 | 97.8 | 96 | 92.9 | 87.9 | 92 | 89.1 | 98.5 | 85.1 | 94.6 | 97.5 | 98.2 | 101 | 92.9 | 90.6 | 95 | 106 | 92.7 | 94.7 | 104 | 100 | 95 | 103 | 95.2 | 0 | 0 | 0 | 0 | 0
Cc1cc(C(=CNc2ccc(Cl)cc2)C(=O)Nc2ccc(Cl)cc2)on1 [CCMI] | > 10 | > 10 | > 10 | > 10 | > 10 | 98.7 | 101 | 98.7 | 96.6 | 98.1 | 104 | 100 | 105 | 98.9 | 105 | 98.4 | 93 | 104 | 88 | 100 | 95.6 | 96.3 | 96.9 | 107 | 95.7 | 103 | 93.3 | 97.8 | 102 | 99.4 | 0 | 0 | 0 | 0 | 0
O=C(O)c1ccccc1NCCc1ccccc1 [tromaril] | > 10 | > 10 | > 10 | > 10 | > 10 | 97.5 | 99.5 | 99 | 102 | 95.5 | 106 | 94.5 | 99.3 | 90.1 | 106 | 97 | 97 | 96.9 | 96.2 | 102 | 102 | 101 | 93.8 | 104 | 95 | 102 | 102 | 101 | 96.4 | 101 | 0 | 0 | 0 | 0 | 0
CN[C@@H]1[C@H](O[C@H]2[C@H](O[C@H]3[C@H](O)[C@@H](O)[C@H](N=C(N)N)[C@@H](O)[C@@H]3N=C(N)N)O[C@@H](C)[C@]2(O)C=O)O[C@@H](CO)[C@H](O)[C@H]1O [STREPTOMYCIN SULFATE [5mM; 10% aq DMSO + 5mM ethanolamine]] | > 10 | > 10 | > 10 | > 10 | > 10 | 97.8 | 98.5 | 99.9 | 95.2 | 98.3 | 87.6 | 102 | 86.6 | 91.9 | 91.7 | 95 | 106 | 88.5 | 95.7 | 98.1 | 101 | 105 | 102 | 101 | 98.2 | 98.7 | 100 | 94.5 | 99.5 | 95.7 | 0 | 0 | 0 | 0 | 0
N#CC(c1ccc(Cl)cc1)c1c(Cl)cc(-n2ncc(=O)[nH]c2=O)cc1Cl (centres undefined) [diclazuril] | > 10 | > 10 | > 10 | > 10 | > 10 | 99.4 | 100 | 92.2 | 95.8 | 109 | 98 | 84.7 | 94.2 | 92.9 | 107 | 100 | 93.7 | 107 | 86.3 | 110 | 101 | 102 | 121 | 110 | 91 | 98.6 | 98.5 | 95.7 | 94.8 | 100 | 0 | 0 | 0 | 0 | 0
CN1CCC[C@@H]1Cc1c[nH]c2ccc(CCS(=O)(=O)c3ccccc3)cc12 [eletriptan] |  | > 10 | > 10 | > 10 | > 10 |  |  |  |  |  | 88.5 | 102 | 97.8 | 95.2 | 87.3 | 96.5 | 98 | 104 | 105 | 96.1 | 103 | 99.6 | 96.7 | 95.6 | 97 | 98.6 | 104 | 94.6 | 104 | 96.3 |  | 0.1 | 0 | 0 | 0
O=C(c1ccc(F)cc1)C1CCN(CCn2c(=S)[nH]c3ccccc3c2=O)CC1 [altanserin] |  | > 10 | > 10 | > 10 | > 10 |  |  |  |  |  | 104 | 103 | 112 | 97.3 | 111 | 103 | 82.7 | 94.2 | 89 | 90.6 | 108 | 107 | 88.2 | 96 | 86.4 | 98.2 | 96.7 | 103 | 96.5 | 97.1 |  | 0 | 0.2 | 1.7 | 0
